Test system: LacMeta
Settings: pH 4.0, 20 mM sodium citrate, 37 °C; copper-loaded enzyme 0.066 µM; ABTS 0.1-10 mM

Km: 4.22 ± 0.374 mM
SMILES: CCn1c(=NN=c2sc3cc(S(=O)(=O)O)ccc3n2CC)sc2cc(S(=O)(=O)O)ccc21 [ABTS, 2,2′-azino-bis (3-ethylbenzothiazoline-6-sulfonic acid)]
